In patent publication US9434725B2, “5-azaindazole compounds and methods of use” (priority 2012, dated 2016):
Structures can show the parent of a compound that is named as a salt.

Legend:
Format in all cases: biochemical
PIM2 = PIM2 (Homo sapiens (Human), UniProt Q9P1W9); test: Pim kinase binding activity, Caliper LC3000 microfluidic peptide phosphorylation assay, PIM2; settings: 10 μM ATP, 90 min, room temperature; read-out: PIM2 LC3K (KI)
Outline: (§1)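 Read-out is microfluidic electrophoretic separation of phosphorylated from unphosphorylated fluorescent Pim peptide, with Ki calculated from conversion. Reactions ran 90 min at room temperature in HEPES pH 7.2 containing MgCl2, Tween 20 and DTT, ended by EDTA-containing buffer.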

PIM1 = PIM1 (Homo sapiens (Human), UniProt P11309); test: biochemical; settings: 10 μM ATP, 90 min, room temperature; read-out: PIM1 LC3K (KI)
Outline: as §1

PIM3 = PIM3 (Homo sapiens (Human), UniProt Q86V86); test: Pim kinase binding activity, Caliper LC3000 microfluidic peptide phosphorylation assay, PIM3; settings: 10 μM ATP, 90 min, room temperature; read-out: PIM3 LC3K (KI)
Outline: as §1

Chain of PIM1 (P11309 whole entry): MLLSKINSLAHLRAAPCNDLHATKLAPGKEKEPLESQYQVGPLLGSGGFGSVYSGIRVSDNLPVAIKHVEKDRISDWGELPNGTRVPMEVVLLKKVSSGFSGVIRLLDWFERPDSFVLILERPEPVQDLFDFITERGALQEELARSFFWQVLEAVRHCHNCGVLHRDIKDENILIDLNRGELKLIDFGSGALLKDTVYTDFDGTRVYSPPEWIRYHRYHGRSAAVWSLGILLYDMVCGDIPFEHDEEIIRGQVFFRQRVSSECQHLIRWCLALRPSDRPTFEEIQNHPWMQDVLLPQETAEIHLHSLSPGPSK
Chain of PIM2 (Q9P1W9 whole entry): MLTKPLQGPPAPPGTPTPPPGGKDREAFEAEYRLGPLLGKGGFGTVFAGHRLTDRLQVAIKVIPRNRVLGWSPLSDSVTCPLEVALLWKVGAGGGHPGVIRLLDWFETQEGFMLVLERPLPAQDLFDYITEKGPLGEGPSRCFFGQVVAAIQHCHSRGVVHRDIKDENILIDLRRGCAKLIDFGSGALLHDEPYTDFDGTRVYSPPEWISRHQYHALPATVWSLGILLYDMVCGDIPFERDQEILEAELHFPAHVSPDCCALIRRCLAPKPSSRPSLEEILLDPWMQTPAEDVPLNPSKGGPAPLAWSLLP

Row | Ki (PIM2) [nM] | Ki (PIM1) [nM] | Ki (PIM3) [nM] | SMILES
1 | 0.257 | 0.026 | 0.032 | Cc1cncc(-c2cc3c(cn2)cnn3-c2cnc(C3CC3)c(N3CCC[C@H](N)C3)n2)n1 [Compound 238, (3S)-1-[3-cyclopropyl-6-[6-(6-methylpyrazin-2-yl)pyrazolo[4,3-c]pyridin-1-yl]pyrazin-2-yl]piperidin-3-amine]
2 | 45.5 | 3.53 | 0.762 | Cc1cncc(-c2cc3c(cn2)cnn3-c2cn(C)c(=O)c(N3CCC[C@H](N)C3)n2)n1 [Compound 241, (S)-3-(3-aminopiperidin-1-yl)-1-methyl-5-(6-(6-methylpyrazin-2-yl)-1H-pyrazolo[4,3-c]pyridin-1-yl)pyrazin-2(1H)-one]
3 | 1600 | 128 | 42.2 | Cn1cc(-c2cc3c(cn2)cnn3-c2cn(C)c(=O)c(N3CCC[C@H](N)C3)n2)cn1 [Compound 242, (S)-3-(3-Aminopiperidin-1-yl)-1-methyl-5-(6-(1-methyl-1H-pyrazol-4-yl)-1H-pyrazolo[4,3-c]pyridin-1-yl)pyrazin-2(1H)-one]
4 | 528 | 57.1 | 8.64 | Cn1cc(-c2cc3c(cn2)cnn3-c2cn(C)c(=O)c(N3CCC[C@@H](N)C3)n2)cn1 [Compound 243, (R)-3-(3-aminopiperidin-1-yl)-1-methyl-5-(6-(1-methyl-1H-pyrazol-4-yl)-1H-pyrazolo[4,3-c]pyridin-1-yl)pyrazin-2(1H)-one]
5 | 52.5 | 5.61 | 2.13 | Cc1cncc(-c2cc3c(cn2)cnn3-c2ccc(C)c(N3CCC[C@H](N)C3=O)n2)n1 [Compound 245, (3S)-3-amino-1-[3-methyl-6-[6-(6-methylpyrazin-2-yl)pyrazolo[4,3-c]pyridin-1-yl]-2-pyridyl]piperidin-2-one]
6 | 22.1 | 1.64 | 3.36 | C[C@]1(O)CNCCN(c2cccc(-n3ncc4cnc(-c5cnn(CC(F)(F)F)c5)cc43)n2)C1 [Compound 248, (S)-6-Methyl-1-(6-(6-(1-(2,2,2-trifluoroethyl)-1H-pyrazol-4-yl)-1H-pyrazolo[4,3-c]-pyridin-1-yl)pyridin-2-yl)-1,4-diazepan-6-ol]
7 | 16.8 | 2.16 | 3.09 | C[C@@]1(O)CNCCN(c2cccc(-n3ncc4cnc(-c5cnn(CC(F)(F)F)c5)cc43)n2)C1 [Compound 249, (R)-6-Methyl-1-(6-(6-(1-(2,2,2-trifluoroethyl)-1H-pyrazol-4-yl)-1H-pyrazolo[4,3-c]-pyridin-1-yl)pyridin-2-yl)-1,4-diazepan-6-ol]
8 | 24.8 | 3.89 | 0.743 | Cc1cncc(-c2cc3c(cn2)cnn3-c2cc(C3COC3)cc(N3CCC[C@H](N)C3)n2)n1 [Compound 250, (S)-1-(6-(6-(6-methylpyrazin-2-yl)-1H-pyrazolo[4,3-c]pyridin-1-yl)-4-(oxetan-3-yl)pyridin-2-yl)piperidin-3-amine]
9 | 181 | 48.8 | 31.6 | COc1ccc(-n2ncc3cnc(-c4cncc(C)n4)cc32)nc1N1CCCNC1=O [Compound 251, 1-[3-methoxy-6-[6-(6-methylpyrazin-2-yl)pyrazolo[4,3-c]pyridin-1-yl]-2-pyridyl]hexahydropyrimidin-2-one]
10 | 35 | 5.67 | 3.16 | Cc1cncc(-c2cc3c(cn2)cnn3-c2cccc(N3CCCNC3=O)n2)n1 [Compound 252, 1-[6-[6-(6-methylpyrazin-2-yl)pyrazolo[4,3-c]pyridin-1-yl]-2-pyridyl]hexahydropyrimidin-2-one]
11 | 45.1 | 2.52 | 1.78 | Cn1cc(-c2cc3c(cn2)cnn3-c2cccc(N3CC(O)C3)n2)cn1 [Compound 253, 1-(6-(6-(1-Methyl-1H-pyrazol-4-yl)-1H-pyrazolo[4,3-c]pyridin-1-yl)pyridin-2-yl)azetidin-3-ol]
12 | 718 | 30.6 | 6.24 | Cn1cc(-c2cc3c(cn2)cnn3-c2cn(C)c(=O)c(N3CCNCC(O)C3)n2)cn1 (stereo not drawn) [Compound 254, 3-(6-Hydroxy-1,4-diazepan-1-yl)-1-methyl-5-(6-(1-methyl-1H-pyrazol-4-yl)-1H-pyrazolo[4,3-c]pyridin-1-yl)pyrazin-2(1H)-one]
13 | 9.62 | 0.876 | 1.58 | OC1CN(c2cccc(-n3ncc4cnc(-c5cnn(CC(F)(F)F)c5)cc43)n2)C1 [Compound 255, 1-(6-(6-(1-(2,2,2-Trifluoroethyl)-1H-pyrazol-4-yl)-1H-pyrazolo[4,3-c]pyridin-1-yl)pyridin-2-yl)azetidin-3-ol]
14 | 83.2 | 5.58 | 2.02 | Cn1cc(-c2cc3c(cn2)cnn3-c2cccc(N3CC(CN)C3)n2)cn1 [Compound 256, (1-(6-(6-(1-Methyl-1H-pyrazol-4-yl)-1H-pyrazolo[4,3-c]pyridin-1-yl)pyridin-2-yl)azetidin-3-yl)methanamine]
15 | 23.3 | 0.784 | 0.507 | Cn1cc(-c2cc3c(cn2)cnn3-c2cccc(N3CC(N)C3)n2)cn1 [Compound 257, 1-(6-(6-(1-Methyl-1H-pyrazol-4-yl)-1H-pyrazolo[4,3-c]pyridin-1-yl)pyridin-2-yl)azetidin-3-amine]
16 | 16.5 | 0.763 | 2.74 | CO[C@@]1(C)CNCCN(c2cccc(-n3ncc4cnc(-c5cnn(CC(F)(F)F)c5)cc43)n2)C1 [Compound 261, (S)-1-(6-(6-Methoxy-6-methyl-1,4-diazepan-1-yl)pyridin-2-yl)-6-(1-(2,2,2-trifluoroethyl)-1H-pyrazol-4-yl)-1H-pyrazolo[4,3-c]pyridine]
17 | 12.5 | 1.23 | 1.84 | NCC1CN(c2cccc(-n3ncc4cnc(-c5cnn(CC(F)(F)F)c5)cc43)n2)C1 [Compound 262, (1-(6-(6-(1-(2,2,2-Trifluoroethyl)-1H-pyrazol-4-yl)-1H-pyrazolo[4,3-c]pyridin-1-yl)pyridin-2-yl)azetidin-3-yl)methanamine]
18 | 58.2 | 2.94 | 6.37 | CO[C@]1(C)CNCCN(c2cccc(-n3ncc4cnc(-c5cnn(CC(F)(F)F)c5)cc43)n2)C1 [Compound 264, (R)-1-(6-(6-Methoxy-6-methyl-1,4-diazepan-1-yl)pyridin-2-yl)-6-(1-(2,2,2-trifluoroethyl)-1H-pyrazol-4-yl)-1H-pyrazolo[4,3-c]pyridine]
19 | 8.79 | 0.941 | 0.206 | Cc1cncc(-c2cc3c(cn2)cnn3-c2cccc(C3CNCCC3O)n2)n1 (stereo not drawn) [Compound 265, 3-[6-[6-(6-methylpyrazin-2-yl)pyrazolo[4,3-c]pyridin-1-yl]-2-pyridyl]piperidin-4-ol]
20 | 29.3 | 1.1 | 1.21 | Cn1cc(-c2cc3c(cn2)cnn3-c2cccc(N3CC4(CCCCN4)C3)n2)cn1 [Compound 266, 1-(6-(2,5-Diazaspiro[3.5]nonan-2-yl)pyridin-2-yl)-6-(1-methyl-1H-pyrazol-4-yl)-1H-pyrazolo[4,3-c]pyridine]
21 | 30.3 | 3.81 | 6.01 | FC(F)(F)Cn1cc(-c2cc3c(cn2)cnn3-c2cccc(N3CC4(CNC4)C3)n2)cn1 [Compound 267, 1-(6-(2,6-Diazaspiro[3.3]heptan-2-yl)pyridin-2-yl)-6-(1-(2,2,2-trifluoroethyl)-1H-pyrazol-4-yl)-1H-pyrazolo[4,3-c]pyridine]
22 | 194 | 15.7 | 27 | FC(F)(F)Cn1cc(-c2cc3c(cn2)cnn3-c2cccc(N3CC4(CCCCN4)C3)n2)cn1 [Compound 269, 1-(6-(2,5-Diazaspiro[3.5]nonan-2-yl)pyridin-2-yl)-6-(1-(2,2,2-trifluoroethyl)-1H-pyrazol-4-yl)-1H-pyrazolo[4,3-c]pyridine]
23 | 20.4 | 1.08 | 0.361 | Cn1cc(-c2cc3c(cn2)cnn3-c2cccc(N3CC(O)(CN)C3)n2)cn1 [Compound 270, 3-(Aminomethyl)-1-(6-(6-(1-methyl-1H-pyrazol-4-yl)-1H-pyrazolo[4,3-c]pyridin-1-yl)pyridin-2-yl)azetidin-3-ol]
24 | 34.8 | 0.494 | 0.337 | c1ccc(COc2cncc(-c3cc4c(cn3)cnn4-c3cccc(N4CCNCC4)n3)n2)cc1 [Compound 276, 6-(6-(benzyloxy)pyrazin-2-yl)-1-(6-(piperazin-1-yl)pyridin-2-yl)-1H-pyrazolo[4,3-c]pyridine]

Row | SMILES | Ki (PIM2) [nM] | Ki (PIM1) [nM] | Ki (PIM3) [nM]
25 | Cc1cncc(-c2cc3c(cn2)cnn3-c2cccc(N3CCCN(C4COC4)CC3)n2)n1 [Compound 240, 6-(6-methylpyrazin-2-yl)-1-(6-(4-(oxetan-3-yl)-1,4-diazepan-1-yl)pyridin-2-yl)-1H-pyrazolo[4,3-c]pyridine] | 31.7 | 1.51 | 2.03
26 | NC1CN(c2cccc(-n3ncc4cnc(-c5cnn(CC(F)(F)F)c5)cc43)n2)C1 [Compound 258, 1-(6-(6-(1-(2,2,2-Trifluoroethyl)-1H-pyrazol-4-yl)-1H-pyrazolo[4,3-c]pyridin-1-yl)pyridin-2-yl)azetidin-3-amine] | 8.18 | 0.514 | 1.14
27 | Clc1cncc(-c2cc3c(cn2)cnn3-c2cccc(N3CCNCC3)n2)n1 [Compound 275, 6-(6-Chloropyrazin-2-yl)-1-(6-(piperazin-1-yl)pyridin-2-yl)-1H-pyrazolo[4,3-c]pyridine dihydrochloride] | 5.74 | 0.725 | 0.267
28 | OC[C@@H]1CCCN1c1cncc(-c2cc3c(cn2)cnn3-c2cccc(N3CCNCC3)n2)n1 [Compound 280, (S)-(1-(6-(1-(6-(piperazin-1-yl)pyridin-2-yl)-1H-pyrazolo[4,3-c]pyridin-6-yl)pyrazin-2-yl)pyrrolidin-2-yl)methanol dihydrochloride] | 18 | 0.051 | 0.101
